Reference: US20090252788A1, “Balsalazide formulations and manufacture and use thereof” (Salix Pharmaceuticals, Inc., priority 2005, published 2009)

Experiments:
Format in all cases: physicochemical
[1] = Solubility of balsalazide disodium in solvents
[2] = Stability of standard and sample solutions in dissolution medium; conditions: room temperature, unprotected from light
Method: Prepare the stock standard solution in duplicate. For each preparation, transfer approximately 35 mg of Balsalazide Disodium Reference Standard, accurately weighed, to a 200-mL volumetric flask. Add 150 mL of dissolution medium, swirl and briefly sonicate to dissolve the flask contents. Dilute to volume with dissolution medium and mix well. Stock Standard Preparation A should be used for analysis of dissolution samples. Prep B should be used as the standard check preparation. The stock standard preparation is stable for 4 days when stored at room temperature and unprotected from light.
For each of the stock standard preparations, pipet 5.0 mL of the stock solution into a 50-mL volumetric flask, dilute to volume with dissolution medium, and mix well. The working standard preparation is stable for 4 days when stored at room temperature and unprotected from light.
Perform USP Apparatus 2 dissolution testing on six individual capsules utilizing the dissolution conditions listed below. Immediately, filter the samples using a 0.2 μm Gelman Nylon filter or a 10-μm Vankel Full Flow filter, discarding the first 2 mL of sample. Pipet 2.0 mL of the sample filtrate into a 100-mL volumetric flask, dilute to volume with dissolution medium, and mix well (nominal concentration: 0.017 mg Balsalazide Disodium per mL). […]

[3] = Particle size distribution and specific surface area (LS 200, Small Volume Module, Fraunhofer optical model)
Text: FIG. 2 depicts and the data below tabulate for Sample 1 the arithmetic statistics describing surface area, particle size, and cumulative volume characteristics for one lot of drug substance (feed material). The particle size distribution for this lot is depicted in FIG. 2.
Table 11 A-D tabulates the arithmetic statistics describing surface area, particle size, and cumulative volume characteristics for three lots of drug substance (feed material). The particle size distributions for these lots are depicted in FIG. 7. […] Of these three lots of drug substance, 100% of the particles are less than 83.89 μm, 373.1 μm, and 69.61 μm, respectively.
Table 12 tabulates the arithmetic statistics describing surface area, particle size, and cumulative volume characteristics for three lots of drug product (encapsulated granulation samples) that were manufactured with the three lots of drug substance (feed material) as depicted in FIG. 7. […] Of these three lots of drug product, 100% of the granules are less than 1660 μm, 2000 μm, and 1512 μm, respectively. The particle size distributions for these three lots are depicted in FIG. 8.

[4] = Particle Diameter (Lower) 0.375 μm
[5] = Particle Diameter (Lower) 0.656 μm
[6] = Particle Diameter (Lower) 1.149 μm
[7] = Particle Diameter (Lower) 2.011 μm
[8] = Particle Diameter (Lower) 3.519 μm
[9] = Particle Diameter (Lower) 6.158 μm
[10] = Particle Diameter (Lower) 10.78 μm
[11] = Particle Diameter (Lower) 18.86 μm
[12] = Particle Diameter (Lower) 33.01 μm
[13] = Particle Diameter (Lower) 57.77 μm
[14] = Particle Diameter (Lower) 101.1 μm
[15] = Particle Diameter (Lower) 176.9 μm
[16] = calculations from 0.375 μm to 2000 μm

SMILES | Cum. < Volume % [3, 4] [%] | Diff. Volume % [3, 4] [%] | Cum. < Volume % [3, 5] [%] | Diff. Volume % [3, 5] [%] | Cum. < Volume % [3, 6] [%] | Diff. Volume % [3, 6] [%] | Cum. < Volume % [3, 7] [%] | Diff. Volume % [3, 7] [%] | Cum. < Volume % [3, 8] [%] | Diff. Volume % [3, 8] [%] | Cum. < Volume % [3, 9] [%] | Diff. Volume % [3, 9] [%] | Cum. < Volume % [3, 10] [%] | Diff. Volume % [3, 10] [%] | Cum. < Volume % [3, 11] [%] | Diff. Volume % [3, 11] [%] | Cum. < Volume % [3, 12] [%] | Diff. Volume % [3, 12] [%] | Cum. < Volume % [3, 13] [%] | Diff. Volume % [3, 13] [%] | further results
O.O.O=C([O-])CCNC(=O)c1ccc(/N=N/c2ccc(O)c(C(=O)[O-])c2)cc1.[Na+].[Na+] [Balsalazide disodium, (E)-5-[[-4-[[(2-carboxyethyl)amino]carbonyl]phenyl]azo]-2-hydroxybenzoic acid, disodium salt, dihydrate] |  |  |  |  |  |  |  |  |  |  |  |  |  |  |  |  |  |  |  |  | Solubility ([1]; in all other organic solvents): practically insoluble; Solubility ([1]; in ethanol): sparingly soluble; Solubility ([1]; in isotonic saline): freely soluble; Solubility ([1]; in methanol): sparingly soluble; Solubility ([1]; in water): freely soluble; Time the preparation is stable ([2]; stock standard preparation 0.175 mg/mL in dissolution medium): 4 days; Time the preparation is stable ([2]; working standard preparation 0.0175 mg/mL in dissolution medium): 4 days
O=C(O)CCNC(=O)c1ccc(/N=N/c2ccc(O)c(C(=O)O)c2)cc1 [Feed Powder Sample A (#35.$01)] | 0 | 1.82 | 1.82 | 3.88 | 5.70 | 4.90 | 10.6 | 9.30 | 19.9 | 18.4 | 38.3 | 25.7 | 63.9 | 21.8 | 85.7 | 10.2 | 95.9 | 3.32 | 99.3 | 0.75 | Particle size, % < 10 ([3]; 10% of volume below this size): 1.899 μm; Particle size, % < 25 ([3]; 25% of volume below this size): 4.253 μm; Particle size, % < 50 ([3]; 50% of volume below this size): 8.031 μm; Particle size, % < 75 ([3]; 75% of volume below this size): 13.88 μm; Particle size, % < 100 ([3]; 100% of volume below this size): 83.89 μm; Cum. < Volume % [3, 14]: 100%; Diff. Volume % [3, 14]: 0%; Cum. < Volume % [3, 15]: 100%; Diff. Volume % [3, 15]: 0%; Cum. < Volume % ([3]; Particle Diameter (Lower) 309.6 μm): 100%; Mean particle size (volume statistics, arithmetic) [3, 16]: 10.85 μm; Median particle size (volume statistics, arithmetic) [3, 16]: 8.031 μm; Specific Surf. Area [3, 16]: 14230 cm^2/mL
O=C(O)CCNC(=O)c1ccc(/N=N/c2ccc(O)c(C(=O)O)c2)cc1 [Feed Powder Sample B (#41.$02)] | 0 | 0.64 | 0.64 | 1.50 | 2.15 | 1.94 | 4.08 | 3.16 | 7.24 | 6.98 | 14.2 | 13.9 | 28.1 | 21.3 | 49.5 | 23.1 | 72.5 | 17.0 | 89.5 | 7.10 | Cum. < Volume % [3, 14]: 96.6%; Diff. Volume % [3, 14]: 2.65%; Cum. < Volume % [3, 15]: 99.3%; Diff. Volume % [3, 15]: 0.73%
